In paper PMC12040169 (PLOS Biology, 2025):

Experiment: in vitro
Details: human, hela cells, % viability

Row | Structure (SMILES) | viability at 28.5 h, 10 µM [%]
1 | O=C(COc1ccc(C2CCCCC2)cc1)Nc1cccc(-c2nc3ncccc3o2)c1 [CBK264569] | 90.9
2 | CCCCCn1c(O)nnc1SCc1csc(CS(=O)(=O)c2ccc(Cl)cc2)n1 [CBK007176] | 80.7
3 | Cc1cc(C)nc(NC(=O)OCCc2cccnc2)c1 [CBK138234] | 95.1
4 | CSc1ccc(-c2cnc(N)c3ncccc23)cc1 [CBK067584] | 68.4
5 | CCn1cc(C2CN(S(=O)(=O)c3cccc(C)c3Cl)CCO2)cn1 (stereo not drawn) [CBK304226] | 91.3
6 | O=C1/C(=C/c2c(NCCCn3ccnc3)nc3ccccn3c2=O)SC(=S)N1C1CCCCC1 [CBK264696] | 95.2
7 | CC(=O)N1CCN(C(=O)c2nn(-c3ccc(F)cc3)c3c2CCCCC3)CC1 [CBK295293] | 107
8 | CN(C)CCCOc1nccnc1N1CCCC1 [CBK113427] | 89.6
9 | Cn1cc(C2C[S+]([O-])CCN2Cc2csc3ccccc23)cn1 (stereo not drawn) [CBK304085] | 103
10 | c1ccc(CC2CCN(CCOc3ccccc3)CC2)cc1 [CBK126433] | 107
11 | CN(CCN1CCCCC1)C(=O)C1CC(=O)Nc2ccccc21 (stereo not drawn) [CBK282729] | 105
12 | Cc1ccc2[nH]c(SCC(=O)Nc3ccc(C(=O)O)cc3)nc2c1 [CBK297526] | 85.7
13 | NC(=O)c1cccc(-n2ncc(-c3cccnc3)n2)c1 [CBK112806] | 81.6
14 | CCOC(=O)c1ccccc1NC(=O)n1ccc2c(N3CCNCC3)cccc21 [CBK003731C] | 50.8
15 | CNC(c1ccncc1)C(NC)c1ccncc1 (stereo not drawn) [CBK015546] | 95.9
16 | CCCn1cc(C(=O)NCC2CCN(c3ccccc3F)C2)c(C)n1 (stereo not drawn) [CBK304634] | 79
17 | Cn1nnnc1SCC(=O)Nc1ccc(C(=O)O)cc1 [CBK267442] | 87.3
18 | O=C(O)c1ccc(Br)c(S(=O)(=O)NCc2ccccc2)c1 [CBK263202] | 90.8
19 | CC(C)N1CCC[C@@H]2CN(C(=O)c3cccc(C(F)(F)F)c3)C[C@@H]21 [CBK285525] | 96
20 | Cc1nccn1C(C(=O)NCC1(C)COC1)c1ccccc1 (stereo not drawn) [CBK281743] | 97.9
21 | Cc1nc2c(OCC(=O)c3ccc(Cl)cc3Cl)cccn2c1N(C)CC1CC1 [CBK147294] | 105
22 | O=S(=O)(NCc1cccc(F)c1F)c1cc2c(N3CCNCC3)nccc2s1 [CBK047588C] | 103

Row | Structure (SMILES) | viability at 28.5 h, 10 µM [%]
23 | CCOC(=O)c1cccnc1-c1cncnc1 [CBK149236] | 118
24 | OCCN1CCN(c2nc(-c3cccnc3)cn3ccnc23)CC1 [CBK037887] | 99.3
25 | COc1ccc2nc(Nc3nnc(-c4ccco4)o3)sc2c1 [CBK287486] | 102
26 | FC(F)(F)C1CN(C2CCCCC2)C(=S)S1 (stereo not drawn) [CBK009719] | 84.2
27 | OC1(c2cccnc2F)CCN(Cc2cccc(F)c2F)CC1 [CBK284375] | 96.2
28 | CCOc1ccc(NC(=O)N(CCO)Cc2nccn2C)cc1C#N [CBK307634] | 82.6
29 | Cc1ccc(N2C(=O)c3ccccc3NC23C(=O)N(C)c2ccc(Br)cc23)cc1 (stereo not drawn) [CBK103752] | 85.2
30 | Cc1nn(-c2ncccn2)c2c1C(C(=O)c1ccccc1)CC(=O)N2 (stereo not drawn) [CBK287890] | 93.2
31 | CCN(CC)C(=O)C1CCCN(C(=O)NCc2ccc(C#N)cc2)C1 (stereo not drawn) [CBK156132] | 102
32 | COc1cc(C(=O)Nc2nc(Cc3n[nH]c(=S)n3C)cs2)ccc1C [CBK296683] | 90.6
33 | COC(=O)c1sccc1NS(=O)(=O)c1ccc2ccccc2c1 [CBK004500] | 103
34 | O=C(NCCO)c1cccc(-c2cc(N3CCCC3CO)n3nccc3n2)c1 (stereo not drawn) [CBK037187] | 96.7
35 | Cn1nnnc1SCc1nc(N)nc(Nc2ccccc2)n1 [CBK268092] | 98.7
36 | Fc1cccc(NCc2ccccc2)n1 [CBK000149] | 94.9
37 | O=C(Cc1csc(-c2ccsc2)n1)Nc1nc2c(s1)CCC2 [CBK297935] | 96.8
38 | CC(N)C(=O)Nc1ccccc1-c1ccccc1 (stereo not drawn) [CBK267700] | 98.7
39 | COc1ccccc1NC(=O)NC(=O)C1CCN(CCc2cccs2)CC1 [CBK034912] | 87.5
40 | COc1nccnc1OC1CCN(CCc2ccccc2)CC1 [CBK084258] | 95
41 | Cc1cc(Cc2ccccc2F)cc(C2CCN(C(=O)c3nc4ccc(F)cc4[nH]3)CC2)n1 [CBK285932] | 120
42 | CN(C)CCN(C)c1cncc(-c2cccc(N)c2)n1 [CBK065270] | 87.3
43 | Oc1ccc2ccccc2c1/C=N/c1ccc(-c2cc(-c3ccc(/N=C/c4c(O)ccc5ccccc45)cc3)ncn2)cc1 [CBK261621] | 104
44 | COc1ccc(CSc2nnc(-c3ccco3)n2N)cc1 [CBK267548] | 90.3

Row | Structure (SMILES) | viability at 28.5 h, 10 µM [%]
45 | Cc1ccc(C)c(NC(=O)CCc2c(C)nn3cnnc3c2C)c1 [CBK304358] | 90
46 | Cc1ccc(S(=O)(=O)N2CC=CCC2)cc1 [CBK058443] | 89
47 | O=C(N/N=C/c1c[nH]c2ccccc12)c1cc(-c2ccc3ccccc3c2)[nH]n1 [CBK262885] | 54.8
48 | COc1ccc(C2c3cc(OC)c(OC)cc3CC(=O)N2c2ccc(C(=O)O)cc2)cc1 (stereo not drawn) [CBK296074] | 93.6
49 | Cc1nn(C)c(C)c1OCC(=O)Nc1cc(C(C)(C)C)sc1C#N [CBK305383] | 101
50 | COc1ccccc1-c1noc(CN2CCCC(C(F)(F)F)C2)n1 (stereo not drawn) [CBK305598] | 93.6
51 | CCCCOC(=O)c1ccc(NC(=O)c2cc(-c3ccco3)nc3c2c(C)nn3C)cc1 [CBK295313] | 103
52 | COc1ccccc1CN(CCCn1ccnc1)Cc1ccco1 [CBK283116] | 111
53 | Cc1c(NC(=O)C2CCN(c3ccccc3Cl)C2)nnn1C (stereo not drawn) [CBK306263] | 90.7
54 | O=C(NCCc1ccccc1)c1ncoc1-c1cccs1 [CBK283662] | 91.8
55 | CC(C)c1n[nH]c(C2CN(Cc3nc4c(F)cccc4[nH]3)CCO2)n1 (stereo not drawn) [CBK305225] | 98.8
56 | O=C1NC2(CCc3ccccc31)CCN(Cc1cccnc1)C2 (stereo not drawn) [CBK284620] | 96.5
57 | Cc1cc(COC(=O)Nc2ccc(Cl)cc2)no1 [CBK086560] | 93.4
58 | CS(=O)(=O)c1ccc(-n2nnnc2CN2CCC3(CCC3)C2)cc1 [CBK306262] | 79.6
59 | CS(=O)(=O)c1sc(C(=O)NC(=S)Nc2cccc(C(F)(F)F)c2)c2c1C=CCC2 [CBK005654] | 96.9
60 | Cn1ccnc1C1(O)CCN(C(=O)c2cccc(F)c2)CC1 [CBK283543] | 107
61 | CC(C)CN1C[C@H]2N(C)C(=O)c3ccccc3C(=O)[C@@]2(C)C1 [CBK283477] | 86.6
62 | COCC(C)N(C)S(=O)(=O)c1ccc(Cl)nc1 (stereo not drawn) [CBK304813] | 95.2
63 | CNCC(=O)N[C@H]1CCN2C(=O)c3ccc(Cl)cc3NC(=O)[C@@H]2C1 [CBK289566] | 83.6
64 | Cc1ccccc1CCNC(=O)c1cccn(CC(=O)N(C)C2CCCCC2)c1=O [CBK286028] | 122
65 | COC(=O)c1cscc1NC(=O)c1cnc(-c2cccc(C)c2)c(-c2ccc(C(C)=O)s2)c1 [CBK036760] | 85.4
66 | CN1C(=O)c2ccc(NS(C)(=O)=O)cc2C1=O [CBK038158] | 104
